{
  "source": "patent US20240350434A1",
  "about": "“METHODS FOR TREATING MAJOR DEPRESSIVE DISORDER AND TREATMENT-RESISTANT DEPRESSION” (iX Biopharma Limited, priority 2020, published 2024)",
  "key": {"[1]": {"assay": "Open label two way randomized crossover pharmacokinetic / absolute bioavailability study, SL ketamine wafer 25 mg vs 10 mg i.v. infusion", "settings": "for clearance: CL, clearance following i.v. administration; for bioavailability: other: sublingual, F; for half-life: median (min-max in text) of eight healthy volunteers; for extrapolated portion of the AUC(0,∞): min-max", "description": "The study was of open label two way randomized, crossover design in eight healthy male volunteers who all gave written informed consent. Each participant received either a single 10 mg i.v. dose as a constant rate 30 min infusion or a 25 mg SL dose of ketamine in two treatment periods with a 7 day washout. Both the SL and i.v. doses, and the duration of the i.v. infusion were chosen to ensure adequate characterization of the plasma concentration-time profiles and good quality estimates of pharmacokinetic (PK) variables for both routes of administration. […] The sequence of the two formulations was according to a computer-generated randomization code.\nThe SL wafer formulation was a freeze dried solid dispersion of racemic ketamine hydrochloride in a porous matrix using lactose as a filling agent. Prior to administration of the wafer the sublingual space was rinsed with 3 ml of water after which the wafer was placed sublingually by a member of the study staff. The participants were instructed to avoid chewing or swallowing of the wafer within 5 min of its placement. For i.v. administration, commercially available ketamine (Ketalar®) was diluted to 30 ml in saline and administered over 30 min using a volumetrically controlled syringe driver. The infusion line was primed prior to start of the infusion.\nPharmacokinetic blood sampling and clinical assessment of local tolerability and safety were carried out for 24 h following both dosing occasions.\nKey inclusion criteria were healthy adult males aged 18-65 years with a BMI 19-30 kg m^−2 in good general health including mental health as assessed by the Symptom Checklist-90-R (SCL-90-R®), a screening instrument which evaluates a broad range of psychological problems and symptoms of psychopathology. Pharmacokinetic blood samples (5 ml), were taken following both i.v. and SL administration at predose 5, 10, 15, 30, 35 and 45 min, and at 1.0, 1.5, 2.0, 2.5, 3.0, 4.0, 6.0, 8.0,12 and 24 h post-dose.\nWhole blood was drawn into prechilled lithium heparin tubes and remained on ice post-sample collection until centrifugation. Samples were centrifuged at 1800 g for 10 min in a refrigerated centrifuge at 4° C. Plasma was decanted and frozen at-80° C.\nSafety laboratory testing (biochemistry, haematology and urinalysis) was performed predose and at hour 24 post-dose administration in each period. Quantification of the plasma concentrations of racemic ketamine was performed using a validated HPLC method with u.v. detection, a lower limit of quantification (LLOQ) of 2 ng ml^−1 and <20% bias and imprecision.\nStandard non-compartmental methods using the PK Solver plug-in for Microsoft\nExcel were used to derive pharmacokinetic variables, except for Cmax, Tmax and Tlast, which were taken as observations from the plasma concentration-time profile of each participant. Actual times were used when reporting Tmax. The terminal rate constant (λz) was estimated by log-linear regression, of the slope of the natural log plasma concentration vs. time curve where λz=−1×slope. The linear regression in the terminal phase used the last three to six data points. The terminal t1/2 was calculated as t1/2=ln(2)/λz.\nThe area under the plasma concentration time curve from time zero to the last quantifiable concentration (AUC(0,tlast)) was obtained using the linear trapezoidal method and extrapolated to infinity to obtain the total area, AUC(0,∞), with Clast/λz, where Clast is the last quantifiable plasma concentration."}, "[2]": {"assay": "Clinical assessment of local tolerability and safety in the crossover study", "assay_type": "in vivo, human", "description": "To assess the local tolerability profile of the SL formulation, modified Likert scales (0-10) were recorded at 5, 10, 15, 30 and 45 min and 1 h post-dose administration at various time points for both the SL and i.v. formulation: • Mucosal irritation • Burning sensation • Bitterness • Nausea • Residual grittiness in the mouth\nSafety assessments included scheduled adverse event probes, spontaneous adverse event (AE) reporting, physical examination, routine laboratory investigations, ECGs and vital sign evaluation.\nVital signs (including systolic and diastolic blood pres-sure, pulse, respiratory rate and body temperature) were performed predose and at hours 0.5, 1, 2, 4, 6, 8, 12 and 24 h post-dose. Pulse oximetry was recorded predose and continuously for the first 3 h post-dose administration"}, "[3]": {"tested_on": "treatment-resistant major depressed patients", "settings": "cited from earlier work"}, "[4]": {"settings": "cited from earlier work"}, "[5]": {"settings": "sublingually administered ketamine; cited from earlier work"}, "[6]": {"tested_on": "mouse tests of antidepressant efficacy", "settings": "up to a 30-fold range of doses, multiple mouse tests; cited from earlier work"}, "NMDA receptors": {"tested_on": "NMDA receptors", "settings": "cited from earlier work"}, "[7]": {"settings": "individual subjects, 10 mg as 30 min i.v. infusion"}, "[8]": {"settings": "individual subjects, 25 mg sublingually as a wafer"}, "[9]": {"settings": "both routes (10 mg i.v., 25 mg SL)"}, "[10]": {"settings": "i.v. infusion, treatment-resistant major depressed patients"}},
  "note": "Several values for one entry are separate records, joined by “and”; a condition that tells them apart may be missing. Equal values may be shown once.",
  "data": [
    {"smiles": "CNC1(c2ccccc2Cl)CCCCC1=O", "note": "(racemic) [RS ketamine, ketamine]", "values": [
      {"measurement": "Cmax, peak plasma concentration (i.v.)", "setting": "[1]; Gmean of eight healthy volunteers, 10 mg as 30 min i.v. infusion", "value": 128.1, "unit": "ng/ml^−1"},
      {"measurement": "Cmax, peak plasma concentration (SL)", "setting": "[1]; Gmean of eight healthy volunteers, 25 mg sublingually as a wafer", "value": 71.1, "unit": "ng/ml^−1"},
      {"measurement": "first quantifiable ketamine plasma concentrations observed at", "setting": "[1]; all participants, both administration routes (i.v. and SL), first post-dose sample", "value": 5, "unit": "min"},
      {"measurement": "AUC(0-inf)", "setting": "[1]; human, plasma, 25 mg, AUC(0,∞) (SL), individual subjects, 25 mg sublingually as a wafer", "value": 204, "unit": "ng·h/mL"},
      {"measurement": "AUC(0-inf)", "setting": "[1]; human, plasma, iv, 10 mg, AUC(0,∞) (i.v.), individual subjects, 10 mg as 30 min i.v. infusion", "value": 270, "unit": "ng·h/mL"},
      {"measurement": "clearance", "setting": "[1]; human, plasma, iv, 10 mg, individual subjects, 10 mg as 30 min i.v. infusion", "value": 997, "unit": "mL/min"},
      {"measurement": "bioavailability", "setting": "[1]; human, plasma, 25 mg, individual subjects, 25 mg SL wafer vs 10 mg i.v., dose adjusted AUC(0,∞)", "value": 30, "unit": "%"},
      {"measurement": "AUC(0,∞) (i.v.)", "setting": "[1]; [7]", "value": "289.2 ng·h/mL and 299.4 ng·h/mL and 261.0 ng·h/mL and 167.2 ng·h/mL and 282.7 ng·h/mL and 243.2 ng·h/mL and 254.8 ng·h/mL"},
      {"measurement": "CL, clearance following i.v. administration", "setting": "[1]; [7]", "value": "37.0 L/h and 34.6 L/h and 33.4 L/h and 36.3 L/h and 35.4 L/h and 41.1 L/h and 39.3 L/h"},
      {"measurement": "Vz, apparent volume of distribution following i.v. administration", "setting": "[1]; [7]", "value": "253 L and 300 L and 164 L and 385 L and 375 L and 126 L and 158 L and 283 L"},
      {"measurement": "Cmax, peak plasma concentration (i.v.)", "setting": "[1]; individual subjects, 10 mg as 30 min i.v. infusion, healthy volunteers", "value": "124.2 ng/ml^−1 and 120.4 ng/ml^−1 and 101.9 ng/ml^−1 and 83.2 ng/ml^−1 and 81.1 ng/ml^−1 and 226.7 ng/ml^−1 and 166.3 ng/ml^−1 and 160.3 ng/ml^−1"},
      {"measurement": "F, bioavailability", "setting": "[1]; individual subjects, 25 mg SL wafer vs 10 mg i.v., dose adjusted AUC(0,∞)", "value": "23% and 38% and 28% and 27%"},
      {"measurement": "AUC(0,∞) (SL)", "setting": "[1]; [8]", "value": "171.9 ng·h/mL and 211.3 ng·h/mL and 166.1 ng·h/mL and 151.6 ng·h/mL and 202.9 ng·h/mL and 162.5 ng·h/mL and 134.3 ng·h/mL"},
      {"measurement": "t1/2, terminal half-life (SL)", "setting": "[1]; [8]", "value": "5.5 h and 3.5 h and 2.3 h and 4.6 h and 5.1 h and 2.9 h and 1.8 h and 3.2 h"},
      {"measurement": "Cmax, peak plasma concentration (SL)", "setting": "[1]; individual subjects, 25 mg sublingually as a wafer, healthy volunteers", "value": "60.2 ng/ml^−1 and 50.0 ng/ml^−1 and 75.1 ng/ml^−1 and 51.8 ng/ml^−1 and 61.2 ng/ml^−1 and 88.8 ng/ml^−1 and 128.3 ng/ml^−1 and 76.7 ng/ml^−1"},
      {"measurement": "AUC(0-inf)", "setting": "[1]; male, human, plasma, 25 mg, AUC(0,∞) (SL), Gmean of eight healthy volunteers, 25 mg sublingually as a wafer", "value": 185, "unit": "ng·h/mL"},
      {"measurement": "half-life", "setting": "[1]; male, human, plasma, 25 mg, t1/2, terminal half-life (SL), 25 mg sublingually as a wafer", "value": 204, "unit": "min"},
      {"measurement": "AUC(0-inf)", "setting": "[1]; male, human, plasma, iv, 10 mg, AUC(0,∞) (i.v.), Gmean of eight healthy volunteers, 10 mg as 30 min i.v. infusion", "value": 255, "unit": "ng·h/mL"},
      {"measurement": "clearance", "setting": "[1]; male, human, plasma, iv, 10 mg, Gmean of eight healthy volunteers, 10 mg as 30 min i.v. infusion", "value": 653, "unit": "mL/min"},
      {"measurement": "Vd", "setting": "[1]; male, human, plasma, iv, 10 mg, Vz, apparent volume of distribution following i.v. administration, Gmean of eight healthy volunteers, 10 mg as 30 min i.v. infusion", "value": 237, "unit": "L"},
      {"measurement": "half-life", "setting": "[1]; male, human, plasma, iv, 10 mg, t1/2, terminal half-life (i.v.), 10 mg as 30 min i.v. infusion", "value": 270, "unit": "min"},
      {"measurement": "bioavailability", "setting": "[1]; male, human, plasma, 25 mg, median (lower, upper 90% CI limit in text) of eight healthy volunteers, 25 mg SL wafer vs 10 mg i.v.", "value": 29, "unit": "%"},
      {"measurement": "extrapolated portion of the AUC(0,∞)", "setting": "[1]; SL dosing", "value": "2-9%"},
      {"measurement": "extrapolated portion of the AUC(0,∞)", "setting": "[1]; i.v. dosing", "value": "3-7%"},
      {"measurement": "onset of adverse events", "setting": "[2]; 10 mg i.v.", "value": "6 to 22", "unit": "min"},
      {"measurement": "onset of adverse events", "setting": "[2]; 25 mg SL dosing", "value": "5 to 18", "unit": "min"},
      {"measurement": "adverse events terrible taste in mouth, blurred vision, decreased sensation in arm and dizziness, number of each", "setting": "[2]; SL", "value": "one"},
      {"measurement": "duration of adverse events", "setting": "[2]; [9]", "value": "less than 1 h"},
      {"measurement": "serious adverse events", "setting": "[2]; [9]", "value": "no serious adverse events"},
      {"measurement": "severity of adverse events", "setting": "[2]; [9]", "value": "mild"},
      {"measurement": "local and systemic tolerability", "setting": "[2]; both routes of administration", "value": "very good"},
      {"measurement": "adverse events thought to be related to treatment, number reported", "setting": "[2]; both routes, eight volunteers", "value": "Nineteen"},
      {"measurement": "adverse events body feels heavy, dry mouth and visual disturbance, number of each", "setting": "[2]; i.v.", "value": "one"},
      {"measurement": "treatment of non-melancholic or anxious depression patients as measured by MADRS", "setting": "[3]; 6 repeated IV doses 0.5 mg/kg, Wang et al", "value": "effectively treated"},
      {"measurement": "patients who maintained response for at least 7 days", "setting": "[3]; [10]", "value": 35, "unit": "%"},
      {"measurement": "time to manifestation of antidepressant effects post-infusion", "setting": "[3]; [10]", "value": "≤ 2", "unit": "h"},
      {"measurement": "anti-depressive effects as measured by MADRS", "setting": "[3]; single IV dose 0.5 mg/kg, Zarate et al", "value": "caused anti-depressive effects"},
      {"measurement": "efficacy for the treatment of depression, comparison with esketamine", "setting": "[3]; single dose IV 0.5 mg/kg, Bahji et al meta-analysis", "value": "more efficacious than intransal esketamine"},
      {"measurement": "duration of action as an anaesthetic", "setting": "[4]; depending on dose", "value": "approximately 30 minutes"},
      {"measurement": "terminal half-life", "setting": "[4]; racemic drug", "value": "approximately 3 hours"},
      {"measurement": "bioavailability values reported in the literature", "setting": "[5]", "value": "24-32.2%"}
    ]},
    {"smiles": "CN[C@@]1(c2ccccc2Cl)CCCCC1=O", "note": "[(R)-ketamine]", "values": [
      {"measurement": "antidepressant efficacy compared with (S)-ketamine", "setting": "[6]", "value": "superior to (S)-ketamine"}
    ]},
    {"smiles": "CN[C@]1(c2ccccc2Cl)CCCCC1=O", "note": "[S enantiomer, (S)-ketamine]", "values": [
      {"measurement": "potency relative to R enantiomer (times more potent)", "setting": "NMDA receptors; in humans in vivo", "value": "approximately 3 times"}
    ]},
    {"smiles": "NC1(c2ccccc2Cl)CCCCC1=O", "note": "(centres unmarked) [norketamine]", "values": [
      {"measurement": "potency as NMDA antagonists relative to parent molecules (times less)", "setting": "NMDA receptors", "value": "5-8 times"}
    ]}
  ]
}
